In data set [1] the test system is Detroit 551 cells. In words: Cell viability (MTS) assay in Detroit 551 cells. The format is cell-based. The note with it: Homo sapiens, Detroit 551, 72 h, read-out: IC50 (cell survival rate of 50%). On the procedure:
Detroit 551 cells, a human fibroblast cell line, are routinely employed to assess both acute and chronic toxicity in normal human cells. Evaluating the cytotoxicity of compounds in Detroit 551 cells helps to identify potential safety concerns early in drug development. The three promising leads, 7a, 7b, and 18, were tested in a Detroit 551 assay using the antineoplastic and antibiotic agent actinomycin D as a positive control.
Detroit 551 cells were harvested and seeded into a 96-well plate, then incubated at 37 °C for 24 h. A serial dilution of the test compound was prepared in eight three-fold concentrations (20,000 nM, 6667 nM, 2222 nM, 741 nM, 247 nM, 82 nM, 27 nM, and 9 nM), and 10 µL of each dilution was added to the corresponding wells. The plate was then returned to 37 °C for an additional 72 h of incubation. After this incubation, a 3-(4,5-dimethylthiazol-2-yl)-5-(3-carboxymethoxyphenyl)-2-(4-sulfophenyl)-2H-tetrazolium (MTS) assay medium (mixed in a 2:0.1 ratio of MTS–phenazine methyl sulfate (PMS)) was prepared. The plate was moved to a biological safety cabinet, and 21 µL of the MTS medium was added to each well. The plate was then incubated at 37 °C for 90 min before absorbance was measured at 490 nm on a Victor 2 plate reader (PerkinElmer, Inc., Waltham, MA, USA). Data were subsequently analyzed to assess cytotoxicity.

Data set [2] is described as follows: Host-cell metabolic activity (MTS assay) in Huh 5-2 cells. It is filed as cell-based. The conditions noted are these: human. The source says:
(§1) An evaluation of the antiviral effects of the conjugated compounds was initially performed in Huh 5-2 cells utilizing the HCV genotype 1b subgenomic replicon system, based on previously reported procedures. By analyzing the dose–response curves, we calculated the concentration of each compound that inhibited the viral replication by 50% (EC50) and the concentration that reduced the host-cell metabolic activity by 50% (CC50). These values were then used to compute the selectivity index (SI = CC50/EC50), which serves as an indicator of a compound’s therapeutic window. Even if an EC50 was determined from the dose–response curve in the antiviral assay, the compounds that were evaluated may not qualify as promising hits. […] It is likely that the antiviral activity observed in the other compounds is due to their nonspecific or pleiotropic effects on the host cell.

For data set [3], the system named is HCV genotype 1b subgenomic replicon. In words: Anti-HCV assay in Huh 5-2 cells (luciferase replicon readout). The format is cell-based, hepatitis C virus (HCV). The note with it: for EC50: Huh-5-2, Huh 5-2 cells, luminescence.
From the text: as §1
Huh 5-2 cells were plated in white, tissue culture-treated 96-well view plates (Packard, Canberra, Canada) at a density of 5 × 10^3 cells per well, using complete Dulbecco’s Modified Eagle Medium (DMEM) containing 250 µg/mL G418. Following 24 h incubation at 37 °C with 5% CO2, the medium was discarded and serial 3-fold dilutions of the test compounds—prepared in complete DMEM lacking G418—were added to reach a final volume of 100 µL per well. After an additional 4-day incubation period under the same conditions, the medium was removed, and luciferase activity was assessed using the Steady-Glo luciferase assay kit (Promega, Leiden, The Netherlands). Luminescence was measured with a Luminoskan Ascent reader (Thermo, Vantaa, Finland). The EC50 value was determined as the compound concentration resulting in a 50% decrease in luciferase signal.

The mark [4] stands for this setting: primary screening, tested starting at 50 μg/mL.
Setting [5] is: Hepatitis C virus, primary screening, tested starting at 50 μg/mL.
The mark [6] stands for this setting: Huh 5-2 cells, primary screening starting at 50 μg/mL.
The mark [7] stands for this setting: secondary screen starting at 125 μg/mL.
The mark [8] stands for this setting: Hepatitis C virus, secondary screen starting at 125 μg/mL, average of triplicate.
Setting [9] is: Huh 5-2 cells, secondary screen starting at 125 μg/mL.

Numbered stars: 1 amine (or outer) side, 2 acyl side, 3 side chain; on linkers, the order of the positions; unused ones are H or OH. Bridge positions count the residues as written; N and C are the ends. Square brackets hold non-standard residues; d marks the D form. Peptide text beside a SMILES is read from it. I, II: the chains in the order shown. Actinocin(9to1) = Cc1c2oc3c(C)ccc(C(=O)[*:1])c3nc-2c(C(=O)[*:2])c(N)c1=O; NMeV = CN[C@H](C(=O)O)C(C)C; Sar = CNCC(=O)O A value given as a limit tells only on which side of the number the result lay.

As for `Cc1c2oc3c(C)ccc(C(=O)N[C@@H]4C(=O)N[C@H](C(C)C)C(=O)N5CCC[C@H]5C(=O)N(C)CC(=O)N(C)[C@@H](C(C)C)C(=O)O[C@@H]4C)c3nc-2c(C(=O)N[C@@H]2C(=O)N[C@H](C(C)C)C(=O)N3CCC[C@H]3C(=O)N(C)CC(=O)N(C)[C@@H](C(C)C)C(=O)O[C@@H]2C)c(N)c1=O` [Actinomycin D, actinomycin D, reference compound] (I: T[dV]P[Sar][NMeV] / II: T[dV]P[Sar][NMeV]; ester I:1-I:C, II:1-II:C; linker I:N-II:N via Actinocin(9to1)), the concentration for half-maximal inhibition (IC50) in data set [1] stood at 15.4 µM.

In data set [2] (setting [4]), `Nc1ncnc2c1nc(SCc1cc3cc(Cl)ccc3oc1=O)n2[C@@H]1O[C@H](CO)[C@@H](O)[C@H]1O` [Compound 3b, 8-[(6′-Chlorocoumarin-3′-yl)methylthio]adenosine] displayed a CC50 of 48 µM. Besides, it took 32 µM to reach a half-maximal effect in data set [3] (setting [5]) (EC50). In addition, the “SI (CC50/EC50)” value in data set [3] (setting [6]) stood at 1.5.

Turning to `O=c1oc2ccc(Cl)cc2cc1CSc1ccn([C@@H]2O[C@H](CO)[C@@H](O)[C@H]2O)c(=O)n1` [Compound 16a, 4-[(6′-Chlorocoumarin-3′-yl)methylthio]uridine], the CC50 in data set [2] (setting [4]) is over 108 µM. Moreover, the EC50 in data set [3] (setting [5]) came to 16 µM. Further, the “SI (CC50/EC50)” value in data set [3] (setting [6]) was over 6.8.

`Nc1ccnc(SCc2cc3cc(Cl)ccc3oc2=O)n1` [Compound 20, 4-Amino-2-[(6′-chlorocoumarin-3′-yl)methylthio]pyrimidine]: the figures for the half-maximal cytotoxic concentration (CC50) in data set [2] (setting [4]) and in data set [2] (setting [7]) were over 156 µM and over 391 µM, respectively. For the same compound, the concentration for a half-maximal effect (EC50) amounted to 53 µM in data set [3] (setting [5]) and 21 µM in data set [3] (setting [8]). The same compound registered an inhibition at 50 µg/mL in data set [3] (Hepatitis C virus, Huh 5-2 cells, at 50 μg/mL) of 69.8%. Further, in data set [3] (Hepatitis C virus, Huh 5-2 cells, at 125 μg/mL), the inhibition at 125 µg/mL was under 80%. In addition, the “SI (CC50/EC50)” value was over 2.9 in data set [3] (setting [6]) and over 19 in data set [3] (setting [9]).

Regarding `Nc1ncnc2[nH]c(SCc3cc4cc(Cl)ccc4oc3=O)nc12` [Compound 3a, 8-[(6′-Chlorocoumarin-3′-yl)methylthio]adenine], in data set [2] (setting [4]), it took 69 µM to reach half-maximal cytotoxicity (CC50). The compound further yielded an EC50 in data set [3] (setting [5]) of 10 µM. Moreover, the “SI (CC50/EC50)” value in data set [3] (setting [6]) stood at 6.7.

On to `Nc1nc(SCc2cc3cc(Cl)ccc3oc2=O)c2nc[nH]c2n1` [Compound 9a, 2-Amino-6-[(6′-chlorocoumarin-3′-yl)methylthio]purine], for which the 50% cytotoxic concentration (CC50) in data set [2] (setting [4]) is over 139 µM; in data set [2] (setting [7]) it was over 347 µM. Further, the 50% effective concentration (EC50) turned out to be 65 µM in data set [3] (setting [5]) and 48 µM in data set [3] (setting [8]). Moreover, the “SI (CC50/EC50)” value is recorded as over 2.1 in data set [3] (setting [6]) and over 7.3 in data set [3] (setting [9]).

With `O=c1nc(SCc2cc3cc(Cl)ccc3oc2=O)cc[nH]1` [Compound 11a, 4-[(6′-Chlorocoumarin-3′-yl)methylthio]uracil], the cytotoxic concentration (CC50) in data set [2] (setting [4]) is over 156 µM. The response in data set [3] (setting [5]) was half-maximal at 18 µM (EC50). Further, the “SI (CC50/EC50)” value in data set [3] (setting [6]) was over 8.6.

For `Nc1nc2c(nc(SCc3cc4cc(Cl)ccc4oc3=O)n2[C@@H]2O[C@H](CO)[C@@H](O)[C@H]2O)c(=O)[nH]1` [Compound 5a, 8-[(6′-Chlorocoumarin-3′-yl)methylthio]guanosine], the CC50 in data set [2] (setting [4]) is over 98 µM. Moreover, the EC50 in data set [3] (setting [5]) was over 98 µM.

As for `Cc1cn([C@H]2C[C@H](O)[C@@H](CO)O2)c(=O)nc1SCc1cc2cc(Cl)ccc2oc1=O` [Compound 16b, 4-[(6′-Chlorocoumarin-3′-yl)methylthio]thymidine], in data set [2] (setting [4]), the 50% cytotoxic concentration (CC50) was over 111 µM. Besides, in data set [3] (setting [5]), it took 59 µM to reach a half-maximal effect (EC50). Moreover, the “SI (CC50/EC50)” value in data set [3] (setting [6]) is reported as over 1.9.

`Nc1nc(SCc2cc3cc(Cl)ccc3oc2=O)c2ncn([C@@H]3O[C@H](CO)[C@@H](O)[C@H]3O)c2n1` [Compound 9b, 2-Amino-6-(6′-chlorocoumarin-3′-yl)methylthio-9-(β-D-ribofuranos-1″-yl)purine] came in with a CC50 in data set [2] (setting [4]) of over 102 µM. This compound also showed an EC50 in data set [3] (setting [5]) of 15 µM. In data set [3] (setting [6]), the “SI (CC50/EC50)” value is reported as over 6.9.

`Cc1c[nH]c(=O)nc1SCc1cc2cc(Cl)ccc2oc1=O` [Compound 11b, 4-(6′-Chlorocoumarin-3′-yl)methylthio-5-methyluracil]: the CC50 in data set [2] (setting [4]) is over 149 µM. Further, a half-maximal effect in data set [3] (setting [5]) (EC50) was put at 16 µM. For the same compound, the “SI (CC50/EC50)” value in data set [3] (setting [6]) is listed as over 9.1.

Compound `Nc1nc2[nH]c(SCc3cc4cc(Cl)ccc4oc3=O)nc2c(=O)[nH]1` [Compound 5b, 8-[(6’-Chlorocoumarin-3’-yl)methylthio]guanine] came in with a cytotoxic concentration (CC50) in data set [2] (setting [4]) of over 133 µM. The EC50 in data set [3] (setting [5]) came out at 51 µM. Moreover, the “SI (CC50/EC50)” value in data set [3] (setting [6]) was over 2.6.

The values above are taken from PMC12029179, “6-Chlorocoumarin Conjugates with Nucleobases and Nucleosides as Potent Anti-Hepatitis C Virus Agents” (Molecules, 2025).
